Experimental data taken from ChEMBL document CHEMBL1201862, “PubChem BioAssay data set” (2004).
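A five-concentration, 48-hour dose response in 96-well plates underlies each endpoint, interpolated linearly between surrounding concentrations. At the GI50, growth is halved.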 Activity calls are given as the source filed them. Rule as the data show it: active = GI50 up to about 1.1 µM and inactive = higher.

Columns and labels:
Test in all cases: DTP human tumour cell line panel, 48 h
MOLT-4 = system: MOLT-4
OVCAR-8 = system: OVCAR-8
HL-60 = system: HL-60
NCI-H460 = system: NCI-H460
SK-MEL-5 = system: SK-MEL-5
SW-620 = system: SW-620
RPMI-8226 = system: RPMI-8226
COLO 205 = system: COLO 205
NCI-H522 = system: NCI-H522
HT-29 = system: HT-29
Malme-3M = system: Malme-3M
K562 = system: K562
SR = system: SR
UO-31 = system: UO-31
SF-539 = system: SF-539
RXF 393 = system: RXF 393
SF-268 = system: SF-268
NCI-H226 = system: NCI-H226
DU-145 = system: DU-145

Structure (SMILES) | GI50 (MOLT-4) | GI50 (OVCAR-8) | GI50 (HL-60) | GI50 (NCI-H460) | GI50 (SK-MEL-5) | GI50 (SW-620) | GI50 (RPMI-8226) | GI50 (COLO 205) | GI50 (NCI-H522) | GI50 (HT-29) | GI50 (Malme-3M) | GI50 (K562) | GI50 (SR) | GI50 (UO-31) | GI50 (SF-539) | GI50 (RXF 393) | GI50 (SF-268) | GI50 (NCI-H226) | GI50 (DU-145)
COC1=CC(=O)c2ccc(C(C)C)cc2C1(C)C1=NC(C)(C)CO1 (stereo unspecified) | 81.7 µM (inactive) | > 100 µM (inactive) | 63 µM (inactive) | > 100 µM (inactive) | > 100 µM (inactive) | > 100 µM (inactive) | 41.4 µM (inactive) | > 100 µM (inactive) | 77.4 µM (inactive) | > 100 µM (inactive) | > 100 µM (inactive) | 76 µM (inactive) | 86.3 µM (inactive) | > 100 µM (inactive) | > 100 µM (inactive) | > 100 µM (inactive) | > 100 µM (inactive) | > 100 µM (inactive) | –
CN1C(=O)CC(c2cccc(C3CC(=O)N(C)C3=O)n2)C1=O (stereo unspecified) | > 100 µM (inactive) | > 100 µM (inactive) | > 100 µM (inactive) | > 100 µM (inactive) | > 100 µM (inactive) | > 100 µM (inactive) | – | > 100 µM (inactive) | > 100 µM (inactive) | > 100 µM (inactive) | > 100 µM (inactive) | > 100 µM (inactive) | > 100 µM (inactive) | > 100 µM (inactive) | > 100 µM (inactive) | > 100 µM (inactive) | > 100 µM (inactive) | > 100 µM (inactive) | –
[O-][Cl+3]([O-])([O-])[O-].c1ccc(-c2csc3c4ccccc4c4ccccc4[n+]23)cc1 | 2.18 µM (inactive) | 2.59 µM (inactive) | 1.91 µM (inactive) | 2.51 µM (inactive) | 0.971 µM (active) | 3.5 µM (inactive) | 4.55 µM (inactive) | 2.25 µM (inactive) | 1.67 µM (inactive) | 4.15 µM (inactive) | 1.58 µM (inactive) | 0.708 µM (active) | 4.99 µM (inactive) | 10.7 µM (inactive) | 3.25 µM (inactive) | 13 µM (inactive) | 2.34 µM (inactive) | 3.1 µM (inactive) | –
COC(=O)C(Cc1nc2ccc(Cl)cc2nc1O)C(=O)C(=O)Nc1cc(C)ccc1C (stereo unspecified) | > 100 µM (inactive) | > 100 µM (inactive) | > 100 µM (inactive) | > 100 µM (inactive) | > 100 µM (inactive) | > 100 µM (inactive) | > 100 µM (inactive) | > 100 µM (inactive) | > 100 µM (inactive) | > 100 µM (inactive) | > 100 µM (inactive) | > 100 µM (inactive) | > 100 µM (inactive) | > 100 µM (inactive) | > 100 µM (inactive) | > 100 µM (inactive) | > 100 µM (inactive) | > 100 µM (inactive) | –
N#C/C(=C/NC(=S)Nc1ccc(S(N)(=O)=O)cc1)C(N)=O | > 100 µM (inactive) | > 100 µM (inactive) | 43.7 µM (inactive) | > 100 µM (inactive) | > 100 µM (inactive) | > 100 µM (inactive) | > 100 µM (inactive) | > 100 µM (inactive) | > 100 µM (inactive) | > 100 µM (inactive) | > 100 µM (inactive) | – | > 100 µM (inactive) | – | > 100 µM (inactive) | > 100 µM (inactive) | > 100 µM (inactive) | – | > 100 µM (inactive)
C=C(C)C1CC=C(C)C(O)([C@@]2(O)C[C@H](C(=C)C)CC=C2C)C1 (stereo partly specified) | 17.8 µM (inactive) | 17.2 µM (inactive) | 23.1 µM (inactive) | 18 µM (inactive) | 14.8 µM (inactive) | 26.7 µM (inactive) | 20.5 µM (inactive) | – | 12.6 µM (inactive) | 17.3 µM (inactive) | 22.8 µM (inactive) | 22.2 µM (inactive) | 21.7 µM (inactive) | 28.4 µM (inactive) | 19.8 µM (inactive) | 13.7 µM (inactive) | 29.9 µM (inactive) | > 10 µM (inactive) | –
C=C(C)C1C/C=C(/C)CCCC2(CCC3=C(CC(C(=C)C)C/C=C(/C)CCC3)O2)C(=O)C1 (stereo unspecified) | > 100 µM (inactive) | > 100 µM (inactive) | > 100 µM (inactive) | > 100 µM (inactive) | – | > 100 µM (inactive) | > 100 µM (inactive) | > 100 µM (inactive) | > 100 µM (inactive) | > 100 µM (inactive) | > 100 µM (inactive) | > 100 µM (inactive) | > 100 µM (inactive) | > 100 µM (inactive) | > 100 µM (inactive) | > 100 µM (inactive) | > 100 µM (inactive) | > 100 µM (inactive) | –
